Reference: patent US20240132431A1, “METHOD FOR ALKYLATING ACIDIC FUNCTIONAL GROUP” (Chugai Seiyaku Kabushiki Kaisha, priority 2021, published 2024)

Molecular target: T1, Bcl-2 protein (Recombinant Human Bcl-2 Protein) (Homo sapiens, UniProt P10415)
T1 construct: purchased Novus NBP2-34889
Assay: Binding evaluation of mixture library compounds to Bcl-2 using AS-MS (affinity selection mass spectrometry)
How it was run: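 Readout is ASMS Ratio (%), (A−C)/B×100, from reversed-phase LC/MS of SEC-passed extracts, with protein-free unfiltered standard (B) and protein-free SEC blank (C). Recombinant human Bcl-2 at 20 μM final met ~1200 pooled compounds at […] each for 1 h, 23° C., dark, in Tris-HCl pH 7.4 buffer.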

T1 sequence (P10415 whole entry): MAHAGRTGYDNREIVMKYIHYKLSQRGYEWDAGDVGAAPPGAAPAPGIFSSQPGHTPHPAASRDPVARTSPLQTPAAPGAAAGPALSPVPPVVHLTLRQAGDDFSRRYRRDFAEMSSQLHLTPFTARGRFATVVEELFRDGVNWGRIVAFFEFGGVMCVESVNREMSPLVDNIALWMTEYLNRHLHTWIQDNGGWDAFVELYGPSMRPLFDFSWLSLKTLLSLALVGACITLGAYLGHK

Row | SMILES | ASMS ratio (%) (n = 1) | ASMS ratio (%) (n = 2)
1 | CCOc1cccc(-c2csc(CN3CCN(c4ccc(C(=O)NS(C)(=O)=O)cc4)CC3)c2)c1 [B2I067-01, 4-[4-[[4-(3-Ethoxyphenyl)thiophen-2-yl]methyl]piperazin-1-yl]-N-methylsulfonylbenzamide] | 0.0 | 0.0
2 | CCOc1cncc(-c2csc(CN3CCN(c4ccc(C(=O)NS(C)(=O)=O)cc4)CC3)c2)c1 [B2I068-01] | 0.0 | 0.0
3 | CCOc1cccc(C#Cc2ccccc2CN2CCN(c3ccc(C(=O)NS(C)(=O)=O)cc3)CC2)c1 [B2I069-01] | 0.0 | −2.2
4 | CCOc1cncc(C#Cc2ccccc2CN2CCN(c3ccc(C(=O)NS(C)(=O)=O)cc3)CC2)c1 [B2I070-01, 4-[4-[[2-[2-(5-Ethoxypyridin-3-yl)ethynyl]phenyl]methyl]piperazin-1-yl]-N-methylsulfonylbenzamide] |  | 0.0
5 | CCOc1cccc(-c2ccccc2CN2CCN(c3ccc(C(=O)NS(C)(=O)=O)nn3)CC2)c1 [B2I071-01, 6-[4-[[2-(3-Ethoxyphenyl)phenyl]methyl]piperazin-1-yl]-N-methylsulfonylpyridazine-3-carboxamide] | −1.2 | −1.9
6 | CCOc1cncc(-c2ccccc2CN2CCN(c3ccc(C(=O)NS(C)(=O)=O)nn3)CC2)c1 [B2I072-01, 6-[4-[[2-(5-Ethoxypyridin-3-yl)phenyl]methyl]piperazin-1-yl]-N-methylsulfonylpyridazine-3-carboxamide] | 0.8 | 1.3
7 | CCOc1cccc(-c2ccc(CN3CCN(c4ccc(C(=O)NS(C)(=O)=O)nn4)CC3)cc2C)c1 [B2I073-01, 6-[4-[[4-(3-Ethoxyphenyl)-3-methylphenyl]methyl]piperazin-1-yl]-N-methylsulfonylpyridazine-3-carboxamide] | 0.0 | 0.0
8 | CCOc1cncc(-c2ccc(CN3CCN(c4ccc(C(=O)NS(C)(=O)=O)nn4)CC3)cc2C)c1 [B2I074-01, 6-[4-[[4-(5-Ethoxypyridin-3-yl)-3-methylphenyl]methyl]piperazin-1-yl]-N-methylsulfonylpyridazine-3-carboxamide] | 0.0 | −8.4
9 | CCOc1cccc(-c2ccc(CN3CCN(c4ccc(C(=O)NS(C)(=O)=O)nn4)CC3)c(CC)c2)c1 [B2I075-01] | 0.0 | 0.0
10 | CCOc1cncc(-c2ccc(CN3CCN(c4ccc(C(=O)NS(C)(=O)=O)nn4)CC3)c(CC)c2)c1 [B2I076-01, 6-[4-[[4-(5-Ethoxypyridin-3-yl)-2-ethylphenyl]methyl]piperazin-1-yl]-N-methylsulfonylpyridazine-3-carboxamide] | 0.2 | −3.2
11 | CCOc1cccc(-c2ccc(CN3CCN(c4ccc(C(=O)NS(C)(=O)=O)nn4)CC3)cc2F)c1 [B2I077-01, 6-[4-[[4-(3-Ethoxyphenyl)-3-fluorophenyl]methyl]piperazin-1-yl]-N-methylsulfonylpyridazine-3-carboxamide] | 0.0 | 0.0
12 | CCOc1cncc(-c2ccc(CN3CCN(c4ccc(C(=O)NS(C)(=O)=O)nn4)CC3)cc2F)c1 [B2I078-01] | 0.0 | 0.0
13 | CCOc1cccc(-c2ccc(CN3CCN(c4ccc(C(=O)NS(C)(=O)=O)nn4)CC3)c(OC)c2)c1 [B2I079-01, 6-[4-[[4-(3-Ethoxyphenyl)-2-methoxyphenyl]methyl]piperazin-1-yl]-N-methylsulfonylpyridazine-3-carboxamide] | 0.0 | 0.0
14 | CCOc1cncc(-c2ccc(CN3CCN(c4ccc(C(=O)NS(C)(=O)=O)nn4)CC3)c(OC)c2)c1 [B2I080-01, 6-[4-[[4-(5-Ethoxypyridin-3-yl)-2-methoxyphenyl]methyl]piperazin-1-yl]-N-methylsulfonylpyridazine-3-carboxamide] | 0.0 | 
